Assays:
[1] = tested on: ERK1/2 phosphorylation at Thr-202/Tyr-204; experiment: Western blot of ERK1/2 phosphorylation; format: cell-based, human; details: 300 nM ILV, 1 hour, compared to DMSO-treated control
Experimental: Cells were lysed in 1×RIPA lysis buffer (Upstate Biotechnology) with 1% protease inhibitor mixture (Sigma)/1% phosphatase inhibitor mixture (Sigma)/1% phosphatase inhibitor mixture II (Sigma). Proteins were separated by 4-20% Tris-Glycine SDS/PAGE (Biorad) under denaturing conditions and transferred to a nitrocellulose membrane. After blocking with 5% nonfat milk in DPBS, the membrane was incubated with primary antibodies against phospho-ERK1/2 (Thr-202/Tyr-204) (1:2,000, Sigma) and ERK1/2 (1:1,000, Cell Signaling) overnight at 4° C. The membrane was then washed, incubated with anti-mouse/rabbit peroxidase-conjugated affinity-purified secondary antibody (1:1000, Cell Signaling) at room temperature for 1 hour, and developed by SuperSignal chemiluminescence (Pierce).
Experiments were performed to monitor downstream signaling by PKC. Since ERK signaling has been reported to be regulated by PKC (Ueda et al., 1996), the activity of ERK signaling was examined with Western blotting to detect the phosphorylation of ERK1/2 at Thr-202/Tyr-204. After 1 hour treatment with 300 nM ILV, the phosphorylation of ERK1/2 increased compared to the DMSO-treated control (FIG. 8a). In addition, MEK/ERK inhibitors, PD098059 or U0126, both block ILV's effect. […]

[2] = tested on: HUES8-derived treated cells grafted under the kidney capsule; experiment: Kidney capsule implantation of treated cells in CD1-nude mice; format: in vivo, mouse
Experimental: After 4 days treatment with 300 nM ILV or 300 nM ILV+ 50 ng/ml FGF10, the cells were washed with DPBS for 3 times and treated with 1 mg/ml dispase for 5 min at 37° C. Then, the cells were lifted with the help of cell scraper, collected by centrifugation and resuspended in 50 μl DMEM supplemented 1×B27. About 40 μl (˜2×10^6 cells) of cell clumps were implanted into the left kidney of xylazine anesthetized CD1-nude mice. Two mice were prepared for each sample. Twelve weeks later, the left kidneys were dissected and fixed in 4% paraformaldehyde for 4 hours at 4° C. and processed by standard techniques to generate 15 micrometer cryosections for antibody staining. The antibodies were used as the same condition as immunocytochemistry. Fluorescent images were acquired on an inverted Zeiss LSM 510 confocal microscope.
To further assess the developmental competence of chemically-treated cells, the cells were transplanted under the kidney capsule of nude mice, an assay used by others to observe pancreatic differentiation in vivo (Korsgren et al., 1991; Movassat et al., 2002). […] Additionally, all insulin^+ cells express c-peptide. In contrast, no insulin^+ cells were detected in the mice injected with DMSO-treated population. […]

[3] = tested on: protein kinase C (PKC) signaling; details: some cell lines; Heikkila and Akerman, 1989; Hirota et al., 1987; cited from earlier work
HUES8-derived population = experiment: Pancreatic lineage markers in ILV-treated population (immunocytochemistry, qRT-PCR); format: cell-based, human
Experimental: Total RNAs were extracted with the RNeasy Mini Kit (Qiagen) and reverse-transcribed using SuperScript III RT-PCR system (Invitrogen) according to the manufacturer's protocol. One microliter of cDNA sample was PCR amplified with QuantiFast SYBR Green PCR Kit (Qiagen) and analyzed with DNA engine Opticon2 (MJ Research).
Cells were fixed with 10% formalin solution (Sigma) for 20 min at room temperature. Immunostaining was carried out with standard protocols. The following primary antibodies were used: goat anti-Pdx1 (1:500; R&D system); rabbit anti-FOXA2 (1:500; Upstate); rabbit anti-HNF6 (1:200; Santa Cruz Biotech); guinea pig anti-insulin (1:1000; Dako); rabbit anti-c-peptide (1:500; Linco); rabbit anti-amylase (1:200, Sigma); goat anti-HNF1β (1:100, Santa Cruz Biotech); and biotinylated DBA (1:400; Vector Lab). Alexa-488-, Alexa-555, and Alexa-647-conjugated donkey antibodies against mouse, rabbit, guinea pig and goat, and Pacific Blue conjugate-streptavidin (Invitrogen) were used at 1:300 dilution.
To further characterize the cells induced by ILV, beyond Pdx1^+ expression, multiple pancreatic lineage markers were examined by immunocytochemistry and qRT-PCR. More than 96% of the Pdx1^+ cells following ILV treatment show significant expression of other pancreatic progenitor markers, including FOXA2 and HNF6 (FIG. 4a). After ILV treatment, Pdx1, HNF6, Ptfla, Sox9, FOXA2 mRNAs level increase (FIG. 4b).

HUES8 cells = experiment: Differentiation of HUES8 cells to definitive endoderm (Sox17 immunostaining); format: cell-based, human; details: 300 nM ILV, 3 days, in the presence or absence of Wnt3a/Activin
Experimental: ILV was next tested at different steps of the hESC differentiation process (see FIG. 1a). ILV was tested on the differentiation of HUES8 cells to definitive endoderm population, which was assessed by immunostaining with Sox17 antibody.
Secondly, ILV was examined on the definitive endoderm population containing 70% Sox17^+ cells derived from HUES8 by Wnt3a/Activin treatment (D'Amour et al., 2006). […] Thus, ILV functions by inducing pancreatic specification of hESC-derived definitive endoderm population.

(−)-Indolactam V [ILV]
phosphorylation of ERK1/2 [1]: increased
teratoma ([2]; after twelve weeks): no evidence for teratoma was detected
endocrine and exocrine markers in grafts ([2]; cells treated 4 days, implanted in left kidney of CD1-nude mice, twelve weeks): contained cell clusters that expressed endocrine markers, including insulin and c-peptide, and an exocrine marker, amylase
PKC signaling [3]: activates
Pdx1, HNF6, Ptfla, Sox9, FOXA2 mRNAs level (HUES8-derived population; 300 nM ILV, 4 days, qRT-PCR): increase
endocrine progenitor markers Nkx2.2, Ngn3 and Nkx6.1 (HUES8-derived population; 300 nM ILV, 4 days, qRT-PCR): upregulated
share of Pdx1+ cells with significant expression of FOXA2 and HNF6 (HUES8-derived population; after ILV treatment, immunocytochemistry): More than 96%
differentiation to definitive endoderm (Sox17) versus DMSO control (HUES8 cells): no detectable difference

— patent US9157062B2, “Compositions and methods for promoting the generation of PDX1+ pancreatic cells” (President and Fellows of Harvard College, priority 2008, dated 2015)
